Reference: patent publication US7795457B2, “Carbamate compounds” (Kosan Biosciences Incorporated, priority 2007, dated 2010)
Where two headings read alike, the source gives them in different places.

Columns and labels:
Caki-1 = assay: Inhibition of tumor cell proliferation, Caki-1; type: cell-based; conditions: Homo sapiens, exposure time 1 h
Description: (§1) The biological activity of compounds of this invention was evaluated by measuring their inhibitory effect on the proliferation of various tumor cell lines. HCT-116 is a human colon cancer cell line. LNCap is a human prostate cancer cell line. SiHa is an HPV-16 positive human cervical cancer line.
(§2) Table D presents additional data for the activity of compounds A-1 and A-4 against various cell lines. In some instances, comparative data against leptomycin B (LMB) and/or compound VI (Dong et al., US 2005/0272727 A1 (2005) is also provided.
(§3) The additional cell lines tested against represent a variety of different cancers: bladder cancer (UM-UC-3), breast cancer (BT474, HCC1937, MDA-MB468, NCI-ADR), CNS cancer (U87MG (glioma), SKNSH (neuroblastoma)), colon cancer (LoVo, LS411N, LS513), head and neck cancer (CAL-27, FaDu), leukemia (CCRF-CEM, MOLT-4), liver cancer (HepG2), lung cancer (A549, NCI-H23, NCI-H358), melanoma (Colo829), ovarian cancer (OVCAR-4), pancreatic cancer (BxPC-3, Mia-PaCa2), prostate cancer (22Rv1, PC-3), and renal cancer (A-498, Caki-1).

MOLT-4 = assay: Inhibition of tumor cell proliferation, MOLT-4; type: cell-based; conditions: Homo sapiens, exposure time 72 h
Description: as §1, §2, §3

CCRF-CEM = assay: Inhibition of tumor cell proliferation, CCRF-CEM; type: cell-based; conditions: Homo sapiens, exposure time 72 h
Description: as §1, §2, §3

LoVo = assay: Inhibition of tumor cell proliferation, LoVo; type: cell-based; conditions: Homo sapiens, exposure time 1 h
Description: as §1, §2, §3

PC-3 = assay: Inhibition of tumor cell proliferation, PC-3; type: cell-based; conditions: Homo sapiens
Description: as §1, §2, §3

LNCap = assay: Inhibition of tumor cell proliferation, LNCap; type: cell-based, human; conditions: Homo sapiens, LNCaP, read-out: Cancer Cell Line (IC50, nM) LNCap
Description: as §1

CRM1 substrate RanBP1 = assay: Nuclear export block (RanBP1 localization, recovery after compound removal); type: cell-based; conditions: recovery of cytoplasmic RanBP1 localization after compound washout (typically 1 h exposure; 8, 24 or 48 h recovery)
Description: The nuclear export blocking capability of compounds of this invention was evaluated as follows:
1-5×10^4 cells were seeded onto 12 mm glass coverslips or wells of a chamber slide (for example, Lab-Tek #177445). Cells were grown overnight at 37° C. to allow cells to attach to the surface. Media was removed and replaced with media containing the desired test compound and incubated the required time period (typically 1 h). For recovery experiments, cells were washed with PBS or media and incubated in media without test compound for the desired recovery periods (typically 8, 24, or 48 h). The media was removed and coverslips/wells were washed with PBS pH 7.4 for 1 minute. Coverslips or slides were fixed with 3.7% formaldehyde in PBS for 20 minutes at room temperature, washed three times in PBS, and stained for the CRM1 substrate RanBP1.
Coverslips or chamber slides were permeabilized and blocked in 10% donkey serum, 0.1% Triton X-100 in PBS for 30 minutes at room temperature. Primary antibodies were diluted in PBS and incubated for 1 hour at room temperature: goat-anti-RanBP1 (Santa Cruz Biotechnology, sc-1160; 1:50 dilution) and mouse-anti-tubulin (Sigma, T9026; 1:400). Cells were washed 3×5 minutes in PBS. Secondary antibodies donkey-anti-goat Cy3 (705-165-147, Jackson Immunoresearch) and donkey anti-mouse FITC (715-095-150, Jackson Immunoresearch) were diluted 1:200 in PBS and incubated for 1 hour at room temperature. Secondary antibody was removed and cells were stained with a nuclear dye such as DAPI (Sigma, D8417; 2.5 ug/mL in PBS) or Hoechst 33342 (Molecular Probes, H3570; 100 ng/mL in PBS) for 5 minutes at room temperature. Cells were washed 3×5 minutes in PBS and coverslips were mounted with FluorSave (EMD Biosciences, 80058-108). Nuclear (N) or cytoplasmic (C) localization of RanBP1 was examined using a 40× objective on a Zeiss Axiovert 200 inverted epiflourescence microscope. Nuclear localization (N>C) was confirmed after the initial drugging period.

MDA-MB-468 = assay: Inhibition of tumor cell proliferation, MDA-MB-468; type: cell-based; conditions: Homo sapiens, exposure time 1 h
Description: as §1, §2, §3

A549 = assay: Inhibition of tumor cell proliferation, A549; type: cell-based; conditions: Homo sapiens, A549, 1 h, read-out: IC50, nM, A549
Description: as §1, §2, §3

SKNSH = assay: Inhibition of tumor cell proliferation, SKNSH; type: cell-based; conditions: Homo sapiens, SK-N-SH, read-out: IC50, nM, SKNSH
Description: as §1, §2, §3

NCI-ADR = assay: Inhibition of tumor cell proliferation, NCI-ADR; type: cell-based; conditions: Homo sapiens, NCI/ADR-RES, read-out: IC50, nM, NCI-ADR
Description: as §1, §2, §3

SiHa = assay: Inhibition of tumor cell proliferation, SiHa; type: cell-based, human; conditions: Homo sapiens, SiHa, read-out: Cancer Cell Line (IC50, nM) SiHa
Description: as §1

A-498 = assay: Inhibition of tumor cell proliferation, A-498; type: cell-based; conditions: Homo sapiens, A498; exposure time 1 h
Description: as §1, §2, §3

HCT-116 = assay: Inhibition of tumor cell proliferation, HCT-116; type: cell-based, human; conditions: Homo sapiens, read-out: Cancer Cell Line (IC50, nM) HCT-116
Description: as §1

HCC1937 = assay: Inhibition of tumor cell proliferation, HCC1937; type: cell-based; conditions: Homo sapiens
Description: as §1, §2, §3

22Rv1 = assay: Inhibition of tumor cell proliferation, 22Rv1; type: cell-based; conditions: Homo sapiens
Description: as §1, §2, §3

LS411N = assay: Inhibition of tumor cell proliferation, LS411N; type: cell-based; conditions: Homo sapiens, LS-411N
Description: as §1, §2, §3

UM-UC-3 = assay: Inhibition of tumor cell proliferation, UM-UC-3; type: cell-based; conditions: Homo sapiens, read-out: IC50, nM, UM-UC-3
Description: as §1, §2, §3

NCI-H358 = assay: Inhibition of tumor cell proliferation, NCI-H358; type: cell-based; conditions: Homo sapiens
Description: as §1, §2, §3

CAL-27 = assay: Inhibition of tumor cell proliferation, CAL-27; type: cell-based; conditions: Homo sapiens
Description: as §1, §2, §3

LS513 = assay: Inhibition of tumor cell proliferation, LS513; type: cell-based; conditions: Homo sapiens, LS-513
Description: as §1, §2, §3

HepG2 = assay: Inhibition of tumor cell proliferation, HepG2; type: cell-based; conditions: Homo sapiens
Description: as §1, §2, §3

OVCAR-4 = assay: Inhibition of tumor cell proliferation, OVCAR-4; type: cell-based; conditions: Homo sapiens
Description: as §1, §2, §3

Mia-PaCa2 = assay: Inhibition of tumor cell proliferation, Mia-PaCa2; type: cell-based; conditions: Homo sapiens, MIA PaCa-2
Description: as §1, §2, §3

FaDu = assay: Inhibition of tumor cell proliferation, FaDu; type: cell-based; conditions: Homo sapiens
Description: as §1, §2, §3

U87MG = assay: Inhibition of tumor cell proliferation, U87MG; type: cell-based; conditions: Homo sapiens, U-87 MG
Description: as §1, §2, §3

Colo829 = assay: Inhibition of tumor cell proliferation, Colo829; type: cell-based; conditions: Homo sapiens, COLO-829
Description: as §1, §2, §3

NCI-H23 = assay: Inhibition of tumor cell proliferation, NCI-H23; type: cell-based; conditions: Homo sapiens
Description: as §1, §2, §3

BT474 = assay: Inhibition of tumor cell proliferation, BT474; type: cell-based; conditions: Homo sapiens, BT-474
Description: as §1, §2, §3

Work on `CC(=C/[C@H](C)C/C=C/C(C)=C/[C@@H](C)C(=O)[C@@H](C)[C@H](O)[C@@H](C)C/C(C)=C/COC(=O)NCc1ccccc1)/C=C/[C@H]1CC=CC(=O)O1` [Compound A-1] yielded an IC50 (Caki-1) of 6.6 nM, an IC50 (MOLT-4) of 3.2 nM and an IC50 (CCRF-CEM) of 4.2 nM. The IC50 (LoVo) was 10.3 nM, the IC50 (PC-3; exposure time 1 h) was 7.4 nM and the IC50 (PC-3; exposure time 72 h) was 2.7 nM. For the same compound, the IC50 (LNCap; 1 h) was 4.7 nM, the IC50 (LNCap; 72 h) was 1.8 nM and the “Nuclear Export Block” value (CRM1 substrate RanBP1) was “Slow recovery”. It also gave an IC50 (MDA-MB-468) of 30.6 nM, an IC50 (A549) of 23.5 nM and an IC50 (SKNSH; 1 h) of 5.1 nM. It also gave an IC50 (SKNSH; 72 h) of 1.5 nM, an IC50 (NCI-ADR; 1 h) of 194 nM and an IC50 (NCI-ADR; 72 h) of 20.6 nM. The IC50 (SiHa; 1 h) was 3.6 nM, the IC50 (SiHa; 72 h) was 1.1 nM and the IC50 (A-498) was 16 nM. It also gave an IC50 (HCT-116; HCT-116, 1 h) of 14.9 nM and an IC50 (HCT-116; HCT-116, 72 h) of 3.3 nM.
For `CC(=C/[C@H](C)C/C=C/C(C)=C/[C@@H](C)C(=O)[C@@H](C)[C@H](OC(N)=O)[C@@H](C)C/C(C)=C/COC(N)=O)/C=C/[C@H]1CC=CC(=O)O1` [Compound A-4], the IC50 (HCC1937; exposure time 1 h) was 42.3 nM, the IC50 (HCC1937; exposure time 72 h) was 7.3 nM and the IC50 (22Rv1; exposure time 1 h) was 4.6 nM. It also gave an IC50 (22Rv1; exposure time 72 h) of 0.7 nM, an IC50 (LS411N; exposure time 1 h) of 9.4 nM and an IC50 (LS411N; exposure time 72 h) of 1.6 nM. The IC50 (UM-UC-3; UMUC3, 1 h) was 7 nM, the IC50 (UM-UC-3; UMUC3, 72 h) was 1.4 nM and the IC50 (NCI-H358; exposure time 1 h) was 5.6 nM. The IC50 (NCI-H358; exposure time 72 h) was 0.7 nM, the IC50 (CAL-27; exposure time 1 h) was 2.8 nM and the IC50 (CAL-27; exposure time 72 h) was 0.5 nM. For the same compound, the IC50 (LNCap; 1 h) was 6.6 nM, the IC50 (LNCap; 72 h) was 1.5 nM and the IC50 (LS513; exposure time 1 h) was 6.3 nM. For the same compound, the IC50 (LS513; exposure time 72 h) was 1 nM, the “Nuclear Export Block” value (CRM1 substrate RanBP1) was “Moderate recovery” and the IC50 (HepG2; exposure time 1 h) was 7.8 nM. It also gave an IC50 (HepG2; exposure time 72 h) of 0.8 nM, an IC50 (OVCAR-4; exposure time 1 h) of 80 nM and an IC50 (OVCAR-4; exposure time 72 h) of 8.8 nM. It also gave an IC50 (Mia-PaCa2; exposure time 1 h) of 49.7 nM, an IC50 (Mia-PaCa2; exposure time 72 h) of 10.8 nM and an IC50 (FaDu; exposure time 1 h) of 27.9 nM. The IC50 (FaDu; exposure time 72 h) was 1.6 nM, the IC50 (U87MG; exposure time 1 h) was 25.5 nM and the IC50 (U87MG; exposure time 72 h) was 1.5 nM. The IC50 (Colo829; exposure time 1 h) was 4.6 nM, the IC50 (Colo829; exposure time 72 h) was 0.9 nM and the IC50 (NCI-H23; exposure time 1 h) was 8.5 nM. For the same compound, the IC50 (NCI-H23; exposure time 72 h) was 1.3 nM, the IC50 (BT474; exposure time 1 h) was 3.8 nM and the IC50 (BT474; exposure time 72 h) was 2.3 nM. The IC50 (NCI-ADR; 1 h) was 771 nM, the IC50 (NCI-ADR; 72 h) was 71.3 nM and the IC50 (SiHa; 1 h) was 3.6 nM. The IC50 (SiHa; 72 h) was 0.8 nM, the IC50 (A-498) was 16 nM and the IC50 (HCT-116; HCT-116, 1 h) was 13.1 nM. It also gave an IC50 (HCT-116; HCT-116, 72 h) of 2.2 nM.
